# Data taken from patent US20230405136A1, “New Combinations of Boron Compounds and Adjuvants for the Treatment of Pathophysiological Conditions and Cancer and for Muscle Regeneration” (Consorcio Centro De Investigacion Biomedica En Red, M.P., priority 2020, published 2023).
# Assays:
# Format in all cases: cell-based
# [1] = system: human DM1 cells; experiment: Myotube formation (sarcomeric α-actinin immunofluorescence) in DM1 muscle cells; conditions: 8 days
# Procedure: (§1) Briefly, the aforementioned cells (DMD, DM1 and WT) were cultured and maintained in 75 cm 2 flasks with skeletal growth medium (Promocell skeletal muscle cell basal medium supplemented with growth factors, calf serum and P/S 1%) at 37° C. in a humidified atmosphere of 5% CO2, until 80% confluence. […] After incubation with the FN coating for 1 h at RT, cells were then seeded at 40.000 cells/well (p-24 plate) in skeletal muscle cell basal medium.
# (§2) For the examples where a boron compound was added, after the previous step, different amounts of the boron compound were added in the culture medium, Promocell skeletal muscle cell basal medium).
# (§3) After 24 h of culture growth medium was changed by myoblast differentiation medium (DMEM high glucose/P/S 1%, insulin 10 μg/mL) and for the examples where the boron compound was added, then different amounts of boron compound were added. Differentiation medium was changed every 2 days and if necessary, the same amount of the boron compound, as previously incorporated was also added in every change. Myotube formation was evaluated after 8 days.
# (§4) Cells were fixed with formalin 4% at the end of the culture for 30 minutes at 4° C. After fixing, cells were washed and conserved at 4° C. in DPBS. Starting with the fixed cells preserved at 4° C. in DPBS, samples were then rinsed with DPBS and permeabilised with DPBS/0.5% Triton X-100 at room temperature for 5 min. Samples were then incubated with sarcomeric α-actinin primary antibody (abcam, 1:200), muscle marker for immunofluorescence detection, in blocking buffer DPBS/2% BSA at 37° C. for 1 h or overnight at 4° C. The samples were then rinsed twice in DPBS/0.1% Triton X-100 and incubated with the secondary antibody anti mouse Cy3 (Invitrogen, 1:200) in blocking buffer at room temperature for 1 h. Finally, samples were washed twice in DPBS/0.1% Triton X-100 before mounting with Vectashield containing DAPI (Vector Laboratories) and observed under an epifluorescence microscope (Nikon Eclipse 80i).
# (§5) Cells were cultured and maintained in 75 cm^2 flasks with skeletal growth medium (Promocell skeletal muscle cell basal medium supplemented with growth factors, calf serum and P/S 1%) at 37° C. in a humidified atmosphere of 5% CO2, until 80% confluence. […] After incubation with the FN coating for 1 h at RT, cells were then seeded at 40,000 cells/well (p-24 plate) in Promocell skeletal muscle cell basal medium. After 24 h of culture, growth medium was changed by myoblast differentiation medium (DMEM high glucose/P/S 1%, insulin 10 μg/mL) and different amounts of bortezomib 5.4 10^−6 μg (0.0000054 μg) Ex 1.1, 2.7 10^−5 μg (0.000027 μg) Ex 1.2, 5.4 10^−5 μg (0.000054 μg) Ex 1.3, and 1.1 10^−4 μg (0.00011 μg) Ex 1.4 (all non-cytotoxic concentrations) were added to each sample in the culture medium. Differentiation medium was changed every 2 days and the different amounts of bortezomib 5.4 10^−6 μg, 2.7 10^−5 μg, 5.4 10^−5 μg and 1.1 10^−4 μg, were added to each sample in every change. Myotube formation was evaluated after 8 days. Cells were fixed as described in the control samples. Afterwards, the samples were also rinsed and washed as described in the control samples. […]
# [2] = system: human wild type (WT) cells; experiment: Myotube formation (sarcomeric α-actinin immunofluorescence) in wild type muscle cells; conditions: 8 days
# Procedure: as §1, §2, §3, §4, §5
# [3] = system: human DMD cells; experiment: Myotube formation (sarcomeric α-actinin immunofluorescence) in DMD muscle cells; conditions: 8 days
# Procedure: as §1, §2, §3, §4, §5
# [4] = system: human DMD cells; experiment: as above; conditions: 8 days; remark: listed apart in the source
# [5] = system: human WT, DMD and DM1 cells; experiment: Myotube formation, across WT, DMD and DM1 cells
# Procedure: Briefly, the aforementioned cells (DMD, DM1 and WT) were cultured and maintained in 75 cm 2 flasks with skeletal growth medium (Promocell skeletal muscle cell basal medium supplemented with growth factors, calf serum and P/S 1%) at 37° C. in a humidified atmosphere of 5% CO2, until 80% confluence. Glass cover slip substrates (12 mm diameter) were sterilised with UV light for 30 min and then coated with 3.6 μg of fibronectin (FN). After incubation with the FN coating for 1 h at RT, cells were then seeded at 40.000 cells/well (p-24 plate) in skeletal muscle cell basal medium.
# as §2, §3
# Cells were fixed with formalin 4% at the end of the culture for 30 minutes at 4° C. After fixing, cells were washed and conserved at 4° C. in DPBS. Starting with the fixed cells preserved at 4° C. in DPBS, samples were then rinsed with DPBS and permeabilised with DPBS/0.5% Triton X-100 at room temperature for 5 min. Samples were then incubated with sarcomeric α-actinin primary antibody (abcam, 1:200), muscle marker for immunofluorescence detection, in blocking buffer DPBS/2% BSA at 37° C. for 1 h or overnight at 4° C. […]
# Cells were cultured and maintained in 75 cm^2 flasks with skeletal growth medium (Promocell skeletal muscle cell basal medium supplemented with growth factors, calf serum and P/S 1%) at 37° C. in a humidified atmosphere of 5% CO2, until 80% confluence. […] Myotube formation was evaluated after 8 days. […]
# [6] = DM1, without fibronectin, bortezomib 1.1 10^−4 μg
# [7] = DM1, without fibronectin, bortezomib 2.7 10^−5 μg
# [8] = DM1, without fibronectin, bortezomib 5.4 10^−5 μg
# [9] = DM1, without fibronectin, bortezomib 5.4 10^−6 μg
# [10] = DM1-FN, with fibronectin (3.6 μg coating), bortezomib 1.1 10^−4 μg
# [11] = DM1-FN, with fibronectin (3.6 μg coating), bortezomib 2.7 10^−5 μg
# [12] = DM1-FN, with fibronectin (3.6 μg coating), bortezomib 5.4 10^−5 μg
# [13] = DM1-FN, with fibronectin (3.6 μg coating), bortezomib 5.4 10^−6 μg
# [14] = WT, without fibronectin, bortezomib 1.1 10^−4 μg
# [15] = WT, without fibronectin, bortezomib 2.7 10^−5 μg
# [16] = WT, without fibronectin, bortezomib 5.4 10^−5 μg
# [17] = WT, without fibronectin, bortezomib 5.4 10^−6 μg
# [18] = WT-FN, with fibronectin (3.6 μg coating), bortezomib 1.1 10^−4 μg
# [19] = WT-FN, with fibronectin (3.6 μg coating), bortezomib 2.7 10^−5 μg
# [20] = WT-FN, with fibronectin (3.6 μg coating), bortezomib 5.4 10^−5 μg
# [21] = WT-FN, with fibronectin (3.6 μg coating), bortezomib 5.4 10^−6 μg
# [22] = DMD, without fibronectin, bortezomib 2.7 10^−5 μg
# [23] = DMD-FN, with fibronectin (3.6 μg coating), bortezomib 1.1 10^−4 μg
# [24] = DMD-FN, with fibronectin (3.6 μg coating), bortezomib 2.7 10^−5 μg
# [25] = DMD-FN, with fibronectin (3.6 μg coating), bortezomib 5.4 10^−5 μg
# [26] = DMD-FN, with fibronectin (3.6 μg coating), bortezomib 5.4 10^−6 μg
# [27] = DMD, without fibronectin, bortezomib 1.1 10^−4 μg
# [28] = DMD, without fibronectin, bortezomib 5.4 10^−5 μg
# [29] = DMD, without fibronectin, bortezomib 5.4 10^−6 μg
# [30] = bortezomib added in the culture medium, 8 days
smiles,measurement,setting,value
"CC(C)C[C@H](NC(=O)[C@H](Cc1ccccc1)NC(=O)c1cnccn1)B(O)O [bortezomib, ((R)-3-Methyl-1-((S)-3-phenyl-2-(pyrazine-2-carboxamido)propanamido)butyl)boronic acid]",% of cell differentiation,[1]; [6],1%
same,myotube diameter,[1]; [6],4 μm
same,% of cell differentiation,[1]; [7],13%
same,myotube diameter,[1]; [7],11 μm
same,% of cell differentiation,[1]; [8],0.5%
same,myotube diameter,[1]; [8],4 μm
same,% of cell differentiation,[1]; [9],14%
same,myotube diameter,[1]; [9],11 μm
same,% of cell differentiation,[1]; [10],1%
same,myotube diameter,[1]; [10],23 μm
same,% of cell differentiation,[1]; [11],55%
same,myotube diameter,[1]; [11],79 μm
same,% of cell differentiation,[1]; [12],54%
same,myotube diameter,[1]; [12],130 μm
same,% of cell differentiation,[1]; [13],37%
same,myotube diameter,[1]; [13],44 μm
same,% of cell differentiation,[2]; [14],0%
same,myotube diameter,[2]; [14],0 μm
same,% of cell differentiation,[2]; [15],55%
same,myotube diameter,[2]; [15],60 μm
same,% of cell differentiation,[2]; [16],45%
same,myotube diameter,[2]; [16],48 μm
same,% of cell differentiation,[2]; [17],47%
same,myotube diameter,[2]; [17],32 μm
same,% of cell differentiation,[2]; [18],39%
same,myotube diameter,[2]; [18],63 μm
same,% of cell differentiation,[2]; [19],79%
same,myotube diameter,[2]; [19],319 μm
same,% of cell differentiation,[2]; [20],72%
same,myotube diameter,[2]; [20],270 μm
same,% of cell differentiation,[2]; [21],70%
same,myotube diameter,[2]; [21],122 μm
same,% of cell differentiation,[3]; [22],31%
same,% of cell differentiation,[3]; [23],17%
same,myotube diameter,[3]; [23],17 μm
same,myotube diameter,[3]; [24],72 μm
same,% of cell differentiation,[3]; [25],61%
same,% of cell differentiation,[3]; [26],47%
same,myotube diameter,[3]; [26],45 μm
same,% of cell differentiation,[4]; [27],1%
same,myotube diameter,[4]; [27],2 μm
same,myotube diameter,[4]; [22],27 μm
same,% of cell differentiation,[4]; [28],5%
same,myotube diameter,[4]; [28],5 μm
same,% of cell differentiation,[4]; [29],9%
same,myotube diameter,[4]; [29],15 μm
same,% of cell differentiation,[4]; [24],80%
same,myotube diameter,[4]; [25],46 μm
same,myotube diameter,[5]; [30],importantly increased myotube diameter
same,myotube differentiation,[5]; [30],enhanced myotube differentiation
same,myotube formation and diameter,"[5]; dystrophic cells, bortezomib together with FN",restored myotube formation (fusion capability) and improved myotube diameter
